Assay results published in US20200109126A1 (priority 2017, published 2020).
Entries after “also recorded” stand apart in the source; their conditions may differ.

Key:
κOR [1] = molecular target: T1, κOR (Homo sapiens, UniProt P41145); assay: Radioligand binding at κOR (PDSP); details: Ki (nM) κOR
T1 construct: NIMH Psychoactive Drug Screening Program (PDSP)

C57BL/6J mice [2] = assay: Tail-flick assay; details: mouse, in vivo
C57BL/6J mice [3] = assay: Accumulated fecal boli quantification (constipation); details: PZM21 20 mg/kg, morphine 10 mg/kg
δOR = molecular target: T2, δOR (Homo sapiens, UniProt P41143); assay: Radioligand binding at δOR (PDSP)
T2 construct: NIMH Psychoactive Drug Screening Program (PDSP)
T2 sequence (P41143 whole entry): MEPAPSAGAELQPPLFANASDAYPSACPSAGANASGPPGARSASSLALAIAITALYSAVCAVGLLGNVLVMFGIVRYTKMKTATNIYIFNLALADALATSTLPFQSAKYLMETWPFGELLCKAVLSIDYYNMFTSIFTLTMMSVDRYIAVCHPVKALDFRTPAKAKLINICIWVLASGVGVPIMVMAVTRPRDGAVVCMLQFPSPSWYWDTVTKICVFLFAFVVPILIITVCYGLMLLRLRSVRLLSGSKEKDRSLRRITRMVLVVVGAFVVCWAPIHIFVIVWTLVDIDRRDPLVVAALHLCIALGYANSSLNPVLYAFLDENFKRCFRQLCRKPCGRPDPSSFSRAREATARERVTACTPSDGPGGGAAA

[4] = system: Oprm1−/− and wild-type C57Bl/6J mice; assay: Hot plate in μOR knockout mice and subcategorization of affective/reflexive pain; type: in vivo, mouse
Method: Analgesia in μOR knockout mice and subcategorization of affective/reflexive pain: Oprm1−/− and wild-type C57Bl/6J mice (male; 8-11 weeks) were acclimated to the testing environment and thermal-plate equipment for three non-consecutive days between 11 A.M. and 1 P.M. prior to any pharmacological studies. Acclimation was achieved by individually confining mice within an enclosed semi-transparent red plastic cylinder (10 cm D×15 cm H) on a raised metal-mesh rack (61 cm H) for 30 minutes, and then exposing each mouse to the thermal-plate equipment (non-heated; floor dimensions, 16.5×16.5 cm; Bioseb), while confined within a clear plastic chamber (16 L×16 W×30H cm). Acclimation exposure to the thermal plate lasted for 30 seconds, and exposure was repeated after 30 minutes to mimic the test day conditions. […] The same experimenter ([…] ) was present throughout the entire duration of habituation and testing to exclude possible olfaction-induced alterations in sensory thresholds.
Cutaneous application of a noxious stimulus, or time spent on a hot plate apparatus can broadly elicit several distinct behavioral responses: 1. Withdrawal reflexes: rapid reflexive retraction or digit splaying of the paw, 2. […] Paw withdrawal reflexes are classically measured in studies of hypersensitivity, and involve simple spinal cord and brainstem circuits. […]

μOR [5] = molecular target: T3, μOR (Homo sapiens, UniProt P35372); assay: Calcium release (FLIPR); type: cell-based; parameters: expressed in transfected cells
T3 sequence (P35372 whole entry): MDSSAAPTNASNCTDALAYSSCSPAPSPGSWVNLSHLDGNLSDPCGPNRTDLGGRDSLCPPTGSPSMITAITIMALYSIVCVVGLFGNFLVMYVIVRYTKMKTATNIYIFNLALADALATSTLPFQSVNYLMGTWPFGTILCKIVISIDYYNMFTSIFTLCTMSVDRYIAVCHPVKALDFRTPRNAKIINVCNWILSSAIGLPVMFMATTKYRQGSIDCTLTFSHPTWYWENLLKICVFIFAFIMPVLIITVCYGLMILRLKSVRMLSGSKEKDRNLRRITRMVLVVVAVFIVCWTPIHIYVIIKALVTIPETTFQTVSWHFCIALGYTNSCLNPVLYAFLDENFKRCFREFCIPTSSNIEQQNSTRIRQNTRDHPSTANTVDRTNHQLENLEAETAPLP
Method: Calcium release was measured using a FLIPR^TETRA fluorescence imaging plate reader (Molecular Devices). Calcium release experiments were run in parallel to Gi/o Glosensor experiments with the same HEKT cells transfected with μOR, except cells for FLIPR were plated in poly-lysine coated 384-well black clear bottom cell culture plates. Cells were incubated at 37° C. with 5% CO2 overnight, and next day, media was decanted and replaced with Fluo-4 direct calcium dye (Life Technologies) made up in HBSS with 20 mM HEPES, pH 7.4. Dye was incubated for 1 hour at 37° C. Afterwards, cells were equilibrated to room temperature, and fluorescence in each well was read for the initial 10 seconds to establish a baseline. Afterwards, 10 μL of drug (3×) was added per well and the maximum-fold increase in fluorescence was determined as fold-over-baseline. Drug solutions used for the FLIPR assay were exactly the same as used for Gi/o Glosensor experiments. To activate endogenous Gq-coupled receptors as a positive control for calcium release, TFLLR-NH2 (10 μM, PAR-1 selective agonist) was used.

hERG ion channel = hERG ion channel (Homo sapiens, UniProt Q12809); assay: Inhibition of hERG channel; type: biochemical
Sequence of hERG ion channel (Q12809 whole entry): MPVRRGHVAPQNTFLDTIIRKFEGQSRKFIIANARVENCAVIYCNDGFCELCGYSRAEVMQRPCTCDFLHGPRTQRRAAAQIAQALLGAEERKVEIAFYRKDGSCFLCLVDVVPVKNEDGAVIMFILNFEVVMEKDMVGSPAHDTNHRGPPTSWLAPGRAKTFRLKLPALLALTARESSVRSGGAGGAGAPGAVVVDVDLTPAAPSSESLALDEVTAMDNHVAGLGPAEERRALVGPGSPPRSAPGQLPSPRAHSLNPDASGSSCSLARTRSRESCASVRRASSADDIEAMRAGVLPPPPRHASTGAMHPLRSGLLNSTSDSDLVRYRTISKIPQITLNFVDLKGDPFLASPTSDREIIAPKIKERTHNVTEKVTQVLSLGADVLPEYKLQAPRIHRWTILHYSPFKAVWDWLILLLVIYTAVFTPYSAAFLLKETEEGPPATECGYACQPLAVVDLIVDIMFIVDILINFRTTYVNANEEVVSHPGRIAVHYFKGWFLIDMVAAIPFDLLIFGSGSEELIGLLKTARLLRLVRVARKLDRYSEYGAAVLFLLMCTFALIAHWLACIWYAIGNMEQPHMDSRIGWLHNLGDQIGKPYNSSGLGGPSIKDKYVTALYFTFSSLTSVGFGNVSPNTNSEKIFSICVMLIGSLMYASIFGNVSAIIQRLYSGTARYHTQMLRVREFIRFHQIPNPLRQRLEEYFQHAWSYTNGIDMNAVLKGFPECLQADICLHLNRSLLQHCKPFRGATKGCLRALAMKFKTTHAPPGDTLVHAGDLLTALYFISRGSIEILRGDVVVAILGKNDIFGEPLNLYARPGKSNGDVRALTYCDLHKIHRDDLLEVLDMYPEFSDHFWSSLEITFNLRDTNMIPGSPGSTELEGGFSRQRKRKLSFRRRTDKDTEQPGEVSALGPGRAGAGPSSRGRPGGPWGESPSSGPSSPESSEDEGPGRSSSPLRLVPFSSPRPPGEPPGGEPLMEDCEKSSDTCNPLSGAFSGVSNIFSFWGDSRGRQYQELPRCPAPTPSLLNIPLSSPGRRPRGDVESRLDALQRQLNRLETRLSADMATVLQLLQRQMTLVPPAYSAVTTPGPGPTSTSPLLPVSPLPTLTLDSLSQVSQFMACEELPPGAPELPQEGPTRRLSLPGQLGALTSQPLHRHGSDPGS

κOR [6] = molecular target: T1, κOR; assay: Gi/o Glosensor assay at κOR; type: cell-based
μOR [7] = molecular target: T3, μOR; assay: biochemical; type: binding; parameters: expressed in transfected cells; host or cells: HEK293 membranes (Ki); Sf9 insect cell membranes (single-point screen); PDSP for analogs
Method: For a primary screen of selected molecules, binding to OR was assessed by measuring competition against the radioligand ^3H-diprenorphine (^3H-DPN). […] The reaction contained 40 fmol of μOR and was incubated in a buffer of 20 mM HEPES pH 7.5, 100 mM sodium chloride, and 0.1% bovine serum albumin for 1 hour at 25° C. To separate free from bound radioligand, reactions were rapidly filtered over Whatman GF/B filters with the aid of a Brandel harvester and ^3H-DPN counts were measured by liquid scintillation.

[8] = Metabolism by mouse liver microsomes; type: in vitro ADME; details: over one hour
Method: Metabolism experiments were performed as described previously. In brief, pooled microsomes from male mouse liver (CD-1) were purchased (Sigma Aldrich) and stored at −75° C. until required. NADPH was purchased (Carl Roth) and stored at −8° C. The incubation reactions were carried out in polyethylene caps (Eppendorf, 1.5 mL) at 37° C. […] The final incubation volume was 0.5 mL. Microsomal reactions were initiated by addition of 50 μL of enzyme cofactor solution NADPH (final concentration of 1 mM). At 0, 15, 30 and 60 min the enzymatic reactions were terminated by addition of 500 μL of ice-cold acetonitrile (containing 8 μM internal standard), and precipitated protein was removed by centrifugation (15,000 rcf for 3 min). The supernatant was analyzed by HPLC/MS (binary solvent system, eluent acetonitrile in 0.1% aqueous formic acid, 10-40% acetonitrile in 8 min, 40-95% acetonitrile in 1 min, 95% acetonitrile for 1 min, flow rate of 0.3 mL/min). The experiments were repeated in three independent experiments. […] Substrate remaining and metabolite formation was calculated as a mean value+SEM of three independent experiments by comparing AUC of metabolites and substrate after predetermined incubation time to AUC of substrate at time 0, estimating a similar ionization rate, corrected by a factor calculated from the AUC of internal standard at each time point.

C57BL/6J mice [9] = assay: Conditioned place preference; details: mouse, in vivo
Method: On day 1 (preconditioning day), mice were placed in the central chamber and allowed to explore freely for 30 minutes. Time spent in each compartment was used to estimate baseline chamber preferences and mice showing specific chamber bias more than 70% were not studied further. On days 2-9 (conditioning days) mice were injected with either vehicle or drug and paired with either the white mesh or the black rod chambers. All mice received vehicle on days 2, 4, 6, 8 and drug on days 3, 5, 7, 9. On day 10 (test day), mice were again placed in the central chamber as on day 1 and allowed to explore freely for 30 minutes. Time spent in each chamber was expressed as percentage preference.

C57BL/6J mice [10] = assay: Open field locomotor response; details: PZM21 20 mg/kg, morphine 10 mg/kg
nociceptin receptor = molecular target: T4, nociceptin receptor (Homo sapiens, UniProt P41146); assay: Gi/o Glosensor assay at nociceptin receptor; type: cell-based
T4 construct: NIMH Psychoactive Drug Screening Program (PDSP)
T4 sequence (P41146 whole entry): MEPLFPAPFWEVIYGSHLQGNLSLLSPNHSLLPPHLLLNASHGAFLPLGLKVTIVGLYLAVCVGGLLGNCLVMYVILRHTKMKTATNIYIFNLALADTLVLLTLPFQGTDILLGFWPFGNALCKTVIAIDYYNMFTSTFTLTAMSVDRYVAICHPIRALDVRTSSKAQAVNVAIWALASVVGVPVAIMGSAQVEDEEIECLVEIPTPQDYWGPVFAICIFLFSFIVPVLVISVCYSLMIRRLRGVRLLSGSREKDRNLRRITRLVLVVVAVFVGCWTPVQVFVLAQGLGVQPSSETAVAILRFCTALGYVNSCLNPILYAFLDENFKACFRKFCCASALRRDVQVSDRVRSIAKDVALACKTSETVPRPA

T1 sequence (P41145 whole entry): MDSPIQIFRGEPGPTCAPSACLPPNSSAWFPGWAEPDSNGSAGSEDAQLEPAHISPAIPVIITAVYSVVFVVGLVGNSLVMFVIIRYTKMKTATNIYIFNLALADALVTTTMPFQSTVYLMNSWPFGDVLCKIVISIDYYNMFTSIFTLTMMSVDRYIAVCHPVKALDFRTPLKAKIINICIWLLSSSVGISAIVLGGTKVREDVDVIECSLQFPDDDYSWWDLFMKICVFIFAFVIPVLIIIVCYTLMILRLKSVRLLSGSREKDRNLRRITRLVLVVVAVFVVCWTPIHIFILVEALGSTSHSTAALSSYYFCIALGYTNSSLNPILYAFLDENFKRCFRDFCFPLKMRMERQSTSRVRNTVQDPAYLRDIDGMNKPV

SMILES: C[C@@H](Cc1ccsc1)NC(=O)NC[C@H](Cc1ccc(O)cc1)N(C)C [PZM21, 1-[(S)-2-(Dimethylamino)-3-(4-hydroxyphenyl)propyl]-3-((S)-1-(thiophen-3-yl)propan-2-yl)urea]
- Ki (κOR [1]): 18 nM
- analgesic effect in tail-flick assay (C57BL/6J mice [2]): no activity; also recorded: no analgesic effect
- constipation effect (C57BL/6J mice [3]): reduced constipatory effects as compared to morphine; also recorded: substantially less than morphine
- Ki (δOR): 506 nM
- affective versus reflexive component of pain ([4]; hot plate 52.5° C., PZM21 20 mg/kg, 20 mg/kg): only modulates the affective component of pain; also recorded: solely confers analgesia to the affective component of pain
- analgesic response in μOR knockout mice ([4]; hot-plate assay): completely ablates the observed analgesic response
- calcium release (μOR [5]): no activity was observed
- IC50 (hERG ion channel): 2000 to 4000 nM
- KOR agonist activity (in words) (κOR [6]): no detectable
- mode of action at KOR (κOR [6]; antagonist mode): antagonist
- optimization from initial docking hit compound 7 (μOR [7]): 1000 fold
- improvement versus 12 (μOR [7]; Ki and EC50 of (S,S)-21 against compound 12): 40 fold
- metabolism by mouse liver microsomes [8]: 8%
- conditioned place preference (C57BL/6J mice [9]): does not induce a conditioned place preference response
- open field locomotion (C57BL/6J mice [10]): does not induce open field locomotion; also recorded: no apparent effect on locomotion versus vehicle
- nociceptin receptor agonist activity (in words) (nociceptin receptor): no detectable
